Source: PubChem BioAssay (NCI)
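Five concentrations, 48 hours, 96-well plates. TGI denotes the concentration required for complete inhibition of growth.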

Key:
Assay in all cases: DTP human tumour cell line panel, 48 h
786-0 renal = test system: 786-0 renal
A498 renal = test system: A498 renal
A549 NSCLC = test system: A549 NSCLC
ACHN renal = test system: ACHN renal
CAKI-1 renal = test system: CAKI-1 renal
CCRF-CEM leukemia = test system: CCRF-CEM leukemia
COLO 205 colon = test system: COLO 205 colon
DLD-1 colon = test system: DLD-1 colon
DMS 114 small cell lung = test system: DMS 114 small cell lung
DMS 273 small cell lung = test system: DMS 273 small cell lung
EKVX NSCLC = test system: EKVX NSCLC
HCC-2998 colon = test system: HCC-2998 colon
HCT-116 colon = test system: HCT-116 colon
HCT-15 colon = test system: HCT-15 colon
HL-60(TB) leukemia = test system: HL-60(TB) leukemia
HOP-62 NSCLC = test system: HOP-62 NSCLC
HOP-92 NSCLC = test system: HOP-92 NSCLC
HT29 colon = test system: HT29 colon
IGROV1 ovarian = test system: IGROV1 ovarian
K-562 leukemia = test system: K-562 leukemia
KM12 colon = test system: KM12 colon
KM20L2 colon = test system: KM20L2 colon
LOX IMVI melanoma = test system: LOX IMVI melanoma
LXFL 529 NSCLC = test system: LXFL 529 NSCLC
M14 melanoma = test system: M14 melanoma
M19-MEL melanoma = test system: M19-MEL melanoma
MALME-3M melanoma = test system: MALME-3M melanoma
NCI-H226 lung = test system: NCI-H226 lung
NCI-H23 lung = test system: NCI-H23 lung
NCI-H460 lung = test system: NCI-H460 lung
NCI-H522 lung = test system: NCI-H522 lung
OVCAR-3 ovarian = test system: OVCAR-3 ovarian
OVCAR-4 ovarian = test system: OVCAR-4 ovarian
OVCAR-5 ovarian = test system: OVCAR-5 ovarian
OVCAR-8 ovarian = test system: OVCAR-8 ovarian
RPMI-8226 leukemia = test system: RPMI-8226 leukemia
SF-268 CNS = test system: SF-268 CNS
SF-295 CNS = test system: SF-295 CNS
SF-539 CNS = test system: SF-539 CNS
SK-MEL-28 melanoma = test system: SK-MEL-28 melanoma
SK-MEL-5 melanoma = test system: SK-MEL-5 melanoma
SK-OV-3 ovarian = test system: SK-OV-3 ovarian
SN12C renal = test system: SN12C renal
SNB-19 CNS = test system: SNB-19 CNS
SNB-75 CNS = test system: SNB-75 CNS
SNB-78 CNS = test system: SNB-78 CNS
SW-620 colon = test system: SW-620 colon
TK-10 renal = test system: TK-10 renal
U251 CNS = test system: U251 CNS
UACC-257 melanoma = test system: UACC-257 melanoma
UACC-62 melanoma = test system: UACC-62 melanoma
UO-31 renal = test system: UO-31 renal
XF 498 CNS = test system: XF 498 CNS
HOP-18 NSCLC = test system: HOP-18 NSCLC
MOLT-4 leukemia = test system: MOLT-4 leukemia
RXF-631 renal = test system: RXF-631 renal

For `Nc1ccc(C(=O)NN2C(=O)C(Cl)C2c2cc(Br)ccc2O)cc1` (configuration not stated), the TGI (786-0 renal) was greater than 100 µM, the TGI (A498 renal) was greater than 100 µM and the TGI (A549 NSCLC) was greater than 100 µM. The TGI (ACHN renal) was greater than 100 µM, the TGI (CAKI-1 renal) was greater than 100 µM and the TGI (CCRF-CEM leukemia) was greater than 100 µM. The TGI (COLO 205 colon) was greater than 100 µM, the TGI (DLD-1 colon) was greater than 100 µM and the TGI (DMS 114 small cell lung) was greater than 100 µM. For the same compound, the TGI (DMS 273 small cell lung) was greater than 100 µM, the TGI (EKVX NSCLC) was greater than 100 µM and the TGI (HCC-2998 colon) was greater than 100 µM. It also gave a TGI (HCT-116 colon) of 32.5 µM, a TGI (HCT-15 colon) greater than 100 µM and a TGI (HL-60(TB) leukemia) of 78.8 µM. It also gave a TGI (HOP-62 NSCLC) greater than 100 µM, a TGI (HOP-92 NSCLC) greater than 100 µM and a TGI (HT29 colon) greater than 100 µM. For the same compound, the TGI (IGROV1 ovarian) was 94.3 µM, the TGI (K-562 leukemia) was greater than 100 µM and the TGI (KM12 colon) was greater than 100 µM. For the same compound, the TGI (KM20L2 colon) was greater than 100 µM, the TGI (LOX IMVI melanoma) was greater than 100 µM and the TGI (LXFL 529 NSCLC) was greater than 100 µM. The TGI (M14 melanoma) was greater than 100 µM, the TGI (M19-MEL melanoma) was greater than 100 µM and the TGI (MALME-3M melanoma) was greater than 100 µM. The TGI (NCI-H226 lung) was greater than 100 µM, the TGI (NCI-H23 lung) was greater than 100 µM and the TGI (NCI-H460 lung) was greater than 100 µM. It also gave a TGI (NCI-H522 lung) of 38.5 µM, a TGI (OVCAR-3 ovarian) greater than 100 µM and a TGI (OVCAR-4 ovarian) greater than 100 µM. For the same compound, the TGI (OVCAR-5 ovarian) was greater than 100 µM, the TGI (OVCAR-8 ovarian) was greater than 100 µM and the TGI (RPMI-8226 leukemia) was greater than 100 µM. It also gave a TGI (SF-268 CNS) greater than 100 µM, a TGI (SF-295 CNS) greater than 100 µM and a TGI (SF-539 CNS) greater than 100 µM. The TGI (SK-MEL-28 melanoma) was greater than 100 µM, the TGI (SK-MEL-5 melanoma) was greater than 100 µM and the TGI (SK-OV-3 ovarian) was greater than 100 µM. It also gave a TGI (SN12C renal) greater than 100 µM, a TGI (SNB-19 CNS) greater than 100 µM and a TGI (SNB-75 CNS) greater than 100 µM. For the same compound, the TGI (SNB-78 CNS) was greater than 100 µM, the TGI (SW-620 colon) was greater than 100 µM and the TGI (TK-10 renal) was greater than 100 µM. The TGI (U251 CNS) was 90.3 µM, the TGI (UACC-257 melanoma) was greater than 100 µM and the TGI (UACC-62 melanoma) was greater than 100 µM. For the same compound, the TGI (UO-31 renal) was greater than 100 µM and the TGI (XF 498 CNS) was greater than 100 µM.
Work on `O=C(/C=C/c1ccc(Cl)c(Cl)c1)c1ccc(F)cc1` yielded a TGI (786-0 renal) of 28.9 µM, a TGI (A498 renal) greater than 100 µM and a TGI (A549 NSCLC) greater than 100 µM. It also gave a TGI (ACHN renal) of 31.6 µM, a TGI (CAKI-1 renal) of 60.8 µM and a TGI (CCRF-CEM leukemia) of 20.5 µM. The TGI (COLO 205 colon) was 52 µM, the TGI (DLD-1 colon) was 27.8 µM and the TGI (DMS 114 small cell lung) was 30 µM. For the same compound, the TGI (DMS 273 small cell lung) was 26.9 µM, the TGI (EKVX NSCLC) was 55.3 µM and the TGI (HCC-2998 colon) was 32.8 µM. The TGI (HCT-116 colon) was 20.3 µM, the TGI (HCT-15 colon) was 22.7 µM and the TGI (HL-60(TB) leukemia) was 33.6 µM. It also gave a TGI (HOP-18 NSCLC) of 50.2 µM, a TGI (HOP-62 NSCLC) greater than 100 µM and a TGI (HOP-92 NSCLC) of 72.1 µM. For the same compound, the TGI (HT29 colon) was 27.6 µM, the TGI (IGROV1 ovarian) was 40.2 µM and the TGI (K-562 leukemia) was 18.7 µM. For the same compound, the TGI (KM12 colon) was 21.9 µM, the TGI (KM20L2 colon) was 35.2 µM and the TGI (LXFL 529 NSCLC) was 27.7 µM. It also gave a TGI (M14 melanoma) of 30.5 µM, a TGI (M19-MEL melanoma) of 32.5 µM and a TGI (MALME-3M melanoma) of 83.4 µM. It also gave a TGI (MOLT-4 leukemia) of 38 µM, a TGI (NCI-H226 lung) of 92.6 µM and a TGI (NCI-H23 lung) of 83.2 µM. For the same compound, the TGI (NCI-H460 lung) was 54.9 µM, the TGI (NCI-H522 lung) was 18.5 µM and the TGI (OVCAR-3 ovarian) was 38.1 µM. The TGI (OVCAR-4 ovarian) was 51.1 µM, the TGI (OVCAR-5 ovarian) was 55.2 µM and the TGI (OVCAR-8 ovarian) was 30.8 µM. For the same compound, the TGI (RPMI-8226 leukemia) was 12.6 µM, the TGI (RXF-631 renal) was greater than 100 µM and the TGI (SF-268 CNS) was 56.3 µM. It also gave a TGI (SF-295 CNS) of 41.6 µM, a TGI (SF-539 CNS) of 38.2 µM and a TGI (SK-MEL-28 melanoma) of 39.5 µM. For the same compound, the TGI (SK-MEL-5 melanoma) was 41 µM, the TGI (SK-OV-3 ovarian) was 83.5 µM and the TGI (SN12C renal) was 52.2 µM. The TGI (SNB-19 CNS) was 32.7 µM, the TGI (SNB-75 CNS) was 58.3 µM and the TGI (SNB-78 CNS) was 41.1 µM. It also gave a TGI (SW-620 colon) of 4.08 µM, a TGI (TK-10 renal) of 94.7 µM and a TGI (U251 CNS) of 25.7 µM. The TGI (UACC-257 melanoma) was 58 µM, the TGI (UACC-62 melanoma) was 28.8 µM and the TGI (UO-31 renal) was greater than 100 µM.
